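Briefly, cells in 96-well plates were exposed to five compound concentrations for 48 h, and endpoints were estimated by linear interpolation. GI50 is the concentration that inhibits growth by half. TGI marks complete inhibition of growth.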
How the values were obtained:
Assay in all cases: NCI-60 cell line screen, 48 h
HCT-15 colon = test system: HCT-15 colon
COLO 205 colon = test system: COLO 205 colon
OVCAR-5 ovarian = test system: OVCAR-5 ovarian
DMS 273 small cell lung = test system: DMS 273 small cell lung
LXFL 529 NSCLC = test system: LXFL 529 NSCLC
UO-31 renal = test system: UO-31 renal
HOP-18 NSCLC = test system: HOP-18 NSCLC
U251 CNS = test system: U251 CNS
SF-268 CNS = test system: SF-268 CNS
DU-145 prostate = test system: DU-145 prostate

## CN(C)CC/C(=N\Nc1c(Cl)cccc1Cl)c1ccccc1
HCT-15 colon
  TGI: 35.6 µM
COLO 205 colon
  TGI: 29.4 µM
OVCAR-5 ovarian
  TGI: 35.7 µM
DMS 273 small cell lung
  TGI: 31.8 µM
LXFL 529 NSCLC
  TGI: 29.5 µM
UO-31 renal
  TGI: 22.5 µM
HOP-18 NSCLC
  TGI: 51.1 µM
U251 CNS
  TGI: 31.3 µM

## Cc1cccc(NC(=O)C(=O)Cc2nc3ccccc3[nH]c2=O)c1C
HCT-15 colon
  TGI: > 100 µM
COLO 205 colon
  TGI: > 100 µM
OVCAR-5 ovarian
  TGI: > 100 µM
LXFL 529 NSCLC
  TGI: > 100 µM
UO-31 renal
  TGI: > 100 µM
SF-268 CNS
  TGI: > 100 µM
HOP-18 NSCLC
  TGI: > 100 µM
U251 CNS
  TGI: > 100 µM

## CCC#CC[C@H]1C/C=C2/C(=O)C=C[C@@H]2C/C=C\CCCC(=O)O1
HCT-15 colon
  GI50: 0.67 µM
  TGI: 2.14 µM
COLO 205 colon
  GI50: 0.961 µM
  TGI: 2.1 µM
OVCAR-5 ovarian
  GI50: 1.74 µM
  TGI: 6.92 µM
UO-31 renal
  GI50: 0.73 µM
  TGI: 1.56 µM
SF-268 CNS
  GI50: 1.23 µM
  TGI: 4.55 µM
U251 CNS
  GI50: 0.706 µM
  TGI: 2.24 µM
DU-145 prostate
  GI50: 1.37 µM
  TGI: 6.24 µM

## CC(C)=CCC/C(=C/CC/C(C)=C/CCc1ccoc1)C(=O)O
HCT-15 colon
  TGI: > 100 µM
COLO 205 colon
  TGI: > 100 µM
OVCAR-5 ovarian
  TGI: > 100 µM
LXFL 529 NSCLC
  TGI: > 100 µM
UO-31 renal
  TGI: > 100 µM
SF-268 CNS
  TGI: > 100 µM
U251 CNS
  TGI: > 100 µM

## CC[O-].CC[O-].O=C1c2ccccc2C(=O)c2c(O)ccc([O-])c21.O=C1c2ccccc2C(=O)c2c(O)ccc([O-])c21.[Ti+4]
HCT-15 colon
  TGI: > 100 µM
COLO 205 colon
  TGI: > 100 µM
OVCAR-5 ovarian
  TGI: > 100 µM
DMS 273 small cell lung
  TGI: > 100 µM
LXFL 529 NSCLC
  TGI: > 100 µM
UO-31 renal
  TGI: > 100 µM
SF-268 CNS
  TGI: > 100 µM
HOP-18 NSCLC
  GI50: 74.4 µM
  TGI: > 100 µM

## CC1=C(C)CC2(CCCCC2=O)S(=O)C1 (configuration not stated)
HCT-15 colon
  TGI: > 100 µM
COLO 205 colon
  TGI: > 100 µM
OVCAR-5 ovarian
  TGI: > 100 µM
DMS 273 small cell lung
  TGI: > 100 µM
LXFL 529 NSCLC
  TGI: > 100 µM
UO-31 renal
  TGI: > 100 µM
SF-268 CNS
  TGI: > 100 µM
HOP-18 NSCLC
  TGI: > 100 µM
U251 CNS
  TGI: > 100 µM

## COc1cc2oc(-c3ccc(O)cc3)cc(=O)c2c(OC)c1OC
HCT-15 colon
  TGI: > 100 µM
COLO 205 colon
  TGI: > 100 µM
OVCAR-5 ovarian
  TGI: > 100 µM
UO-31 renal
  TGI: > 100 µM
SF-268 CNS
  TGI: > 100 µM
U251 CNS
  TGI: > 100 µM
DU-145 prostate
  TGI: > 100 µM

## CC(=O)OC1CC(O)C23COC(O)C1(C)C2CC(O)C1(C)C3C(=O)C(O)C2(C)C(c3ccoc3)CC3OC321 (configuration not stated)
HCT-15 colon
  GI50: 1.26 µM
  TGI: > 100 µM
COLO 205 colon
  GI50: < 0.01 µM
  TGI: > 100 µM
OVCAR-5 ovarian
  GI50: > 36 µM
  TGI: > 100 µM
UO-31 renal
  GI50: 3.08 µM
  TGI: > 41.4 µM
SF-268 CNS
  GI50: 2.2 µM
  TGI: > 100 µM
U251 CNS
  GI50: 0.379 µM
  TGI: > 100 µM
DU-145 prostate
  GI50: 0.9 µM
  TGI: > 100 µM

## COc1ccc(C(=O)c2cc(C)c(OC)c(C)c2)c(OC)c1N(C(=O)C(Cl)Cl)C(=O)C(Cl)Cl
HCT-15 colon
  GI50: 0.0617 µM
  TGI: > 100 µM
COLO 205 colon
  GI50: 0.156 µM
  TGI: 4.14 µM
OVCAR-5 ovarian
  GI50: 0.111 µM
  TGI: > 100 µM
UO-31 renal
  GI50: 0.0736 µM
  TGI: > 47.5 µM
SF-268 CNS
  GI50: 1.01 µM
  TGI: > 100 µM
U251 CNS
  GI50: 0.0553 µM
  TGI: > 100 µM
DU-145 prostate
  GI50: 0.0392 µM
  TGI: > 100 µM

## O=C1NC(=O)c2ccc([N+](=O)[O-])c3cccc1c23
HCT-15 colon
  TGI: 22.4 µM
COLO 205 colon
  TGI: 30.9 µM
OVCAR-5 ovarian
  TGI: 32.3 µM
UO-31 renal
  TGI: 29.8 µM
SF-268 CNS
  TGI: 62 µM
U251 CNS
  TGI: 32.3 µM
DU-145 prostate
  TGI: > 100 µM
